# Reference: paper PMC2827632 (Biochemistry, 2010)
# Residue numbers refer to the chain shown, from its start. Read-outs that look alike come from different tables or passages of the source.
# T1: Mtb PDHC (Mycobacterium tuberculosis, UniProt P9WHH9)
# T1 sequence (P9WHH9 1-464): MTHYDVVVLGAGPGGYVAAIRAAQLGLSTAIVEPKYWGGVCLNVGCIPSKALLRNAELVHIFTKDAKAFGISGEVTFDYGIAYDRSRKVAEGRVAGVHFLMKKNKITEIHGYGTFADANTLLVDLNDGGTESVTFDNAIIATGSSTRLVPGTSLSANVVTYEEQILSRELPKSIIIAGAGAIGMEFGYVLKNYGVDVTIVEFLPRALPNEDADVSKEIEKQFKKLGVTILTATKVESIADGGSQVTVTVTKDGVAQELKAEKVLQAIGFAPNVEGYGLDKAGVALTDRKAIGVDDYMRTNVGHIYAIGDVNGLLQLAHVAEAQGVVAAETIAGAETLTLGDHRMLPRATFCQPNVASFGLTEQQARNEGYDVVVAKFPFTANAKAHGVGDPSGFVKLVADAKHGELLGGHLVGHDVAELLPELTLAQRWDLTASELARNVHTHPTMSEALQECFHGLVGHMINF
# T2: Mtb Lpd (Mycobacterium tuberculosis, UniProt P9WHH9)
# T2 sequence (P9WHH9 1-464): T1 sequence (P9WHH9 1-464)
# T3: porcine PDHC (Sus scrofa, UniProt P09623)
# T3 sequence (P09623 36-509): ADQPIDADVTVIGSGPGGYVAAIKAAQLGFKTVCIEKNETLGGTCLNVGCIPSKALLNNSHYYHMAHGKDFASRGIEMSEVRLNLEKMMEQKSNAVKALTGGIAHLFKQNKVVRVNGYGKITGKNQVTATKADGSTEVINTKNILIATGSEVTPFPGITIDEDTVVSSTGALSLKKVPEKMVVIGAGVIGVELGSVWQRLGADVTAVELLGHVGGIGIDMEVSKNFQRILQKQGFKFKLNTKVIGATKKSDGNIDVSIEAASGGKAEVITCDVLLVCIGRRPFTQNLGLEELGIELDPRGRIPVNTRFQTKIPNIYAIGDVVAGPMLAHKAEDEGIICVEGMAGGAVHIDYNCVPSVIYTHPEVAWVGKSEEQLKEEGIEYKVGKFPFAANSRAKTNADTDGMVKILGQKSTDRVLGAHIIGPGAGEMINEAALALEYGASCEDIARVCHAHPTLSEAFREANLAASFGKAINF
# T4: bovine thioredoxin reductase (Bos taurus, UniProt O62768)
# T4 sequence (O62768 1-499): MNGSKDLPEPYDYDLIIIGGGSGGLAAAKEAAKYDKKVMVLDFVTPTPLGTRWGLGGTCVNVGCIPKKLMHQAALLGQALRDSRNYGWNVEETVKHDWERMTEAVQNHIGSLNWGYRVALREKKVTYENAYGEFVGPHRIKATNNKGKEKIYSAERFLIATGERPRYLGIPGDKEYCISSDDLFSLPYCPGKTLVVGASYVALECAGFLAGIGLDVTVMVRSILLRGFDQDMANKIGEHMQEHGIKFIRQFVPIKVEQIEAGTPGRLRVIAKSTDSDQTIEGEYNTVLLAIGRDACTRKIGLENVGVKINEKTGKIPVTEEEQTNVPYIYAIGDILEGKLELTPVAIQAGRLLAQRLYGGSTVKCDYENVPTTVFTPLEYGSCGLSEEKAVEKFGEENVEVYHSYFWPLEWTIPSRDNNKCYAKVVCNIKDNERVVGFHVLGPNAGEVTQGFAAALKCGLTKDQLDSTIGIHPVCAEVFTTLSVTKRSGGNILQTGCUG
# T5: bovine Lpd (Bos taurus, UniProt F1N206)
# T5 sequence (F1N206 36-509): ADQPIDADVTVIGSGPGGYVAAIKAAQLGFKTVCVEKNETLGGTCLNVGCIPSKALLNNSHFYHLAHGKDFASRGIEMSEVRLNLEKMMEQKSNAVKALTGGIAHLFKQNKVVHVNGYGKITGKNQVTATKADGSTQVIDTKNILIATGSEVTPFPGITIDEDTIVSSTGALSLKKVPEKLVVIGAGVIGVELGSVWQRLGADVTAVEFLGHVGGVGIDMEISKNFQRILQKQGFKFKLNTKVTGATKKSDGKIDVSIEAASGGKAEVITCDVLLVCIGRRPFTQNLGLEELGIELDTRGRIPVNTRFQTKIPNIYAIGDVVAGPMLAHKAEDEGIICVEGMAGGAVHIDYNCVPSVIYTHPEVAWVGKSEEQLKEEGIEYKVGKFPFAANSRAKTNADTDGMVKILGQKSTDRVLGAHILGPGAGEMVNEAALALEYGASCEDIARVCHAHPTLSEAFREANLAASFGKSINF
# T6: human Lpd (Homo sapiens, UniProt P09622)
# T6 sequence (P09622 36-509): T5 sequence (F1N206 36-509) with V35I, F62Y, L65M, E86D, N94T, S135G, L181M, Q285K, T298P
# T7: PDHC activity in Mtb lysates (Mycobacterium tuberculosis, UniProt P9WHH9)
# T7 sequence (P9WHH9 1-464): T1 sequence (P9WHH9 1-464)
# B1: Mycobacterium tuberculosis lipoamide dehydrogenase (Lpd), residues 1-464 (enzyme)
# chain: T1 sequence (P9WHH9 1-464)
# What was measured:
# Mtb PDHC = biological target: T1, Mtb PDHC; settings: read-out: IC50 Mtb PDHC; PDHC assay
# Mtb Lpd [1] = biological target: T2, Mtb Lpd
# porcine PDHC = biological target: T3, porcine PDHC; test: Porcine PDHC assay; assay type: biochemical
# [2] = biological target: T4, bovine thioredoxin reductase; test: Bovine thioredoxin reductase DTNB assay; assay type: biochemical; settings: for IC50: DTNB assay, 100 μM NADPH
# bovine Lpd = biological target: T5, bovine Lpd; test: Bovine Lpd DTNB assay; assay type: biochemical
# human Lpd [3] = biological target: T6, human Lpd; test: Human Lpd DTNB assay; assay type: biochemical; settings: for Inhibition of human Lpd (words): concentrations up to 100 μM
# Mtb Lpd [4] = biological target: T2, Mtb Lpd; remark: listed apart in the source
# [5] = biological target: T7, PDHC activity in Mtb lysates; assay type: biochemical
# Mtb Lpd [6] = biological target: T2, Mtb Lpd; remark: listed apart in the source
# human Lpd [7] = biological target: T6, human Lpd; test: Human Lpd dihydrolipoamide-NAD+ spectrophotometric assay; assay type: biochemical; settings: dihydrolipoamide and NAD+ as substrates, up to 100 μM
# [8] = test system: mouse bone marrow macrophages; test: cells; assay type: cell-based; settings: for EC50: read-out: BMM EC50 (concentration at which viability is reduced to 50%)
# crystal structure = biological target: the molecule itself; test: crystal structure
molecule,measurement,setting,value
"COc1ccc(C(=O)N2CCC3(CC2)C(=O)N(CC(=O)NCc2cccc(C(F)(F)F)c2)CN3c2ccccc2)c(OC)c1 [compound 4, 2-(8-(2,4-dimethoxybenzoyl)-4-oxo-1-phenyl-1,3,8-triazaspiro[4.5]decan-3-yl)-N-(3-(trifluoromethyl)benzyl) acetamide]",IC50,Mtb PDHC,7.2 µM
same,IC50,"Mtb Lpd [1]; read-out: IC50 Mtb Lpd NADH-lipoamide, NADH-lipoamide assay",2 µM
same,IC50,"porcine PDHC; read-out: IC50 pPDHC, PDHC assay",100 µM
same,IC50,[2]; read-out: IC50 bTR,> 100 µM
same,IC50,"bovine Lpd; read-out: IC50 bLpd, DTNB assay",> 100 µM
same,Inhibition of human Lpd (words),human Lpd [3],did not inhibit
same,IC50,"human Lpd [3]; read-out: IC50 hLpd, DTNB assay",> 100 µM
same,Inhibition of Mtb Lpd in dihydrolipoamide-NAD+ assay,Mtb Lpd [4],inhibited
same,IC50 for Lpd activity in Mtb extracts measured by inhibition of PDHC activity,[5],low micromolar range
same,IC50,"Mtb Lpd [6]; read-out: IC50 Mtb Lpd + BSA, DTNB assay with 100 μg/ml bovine serum albumin",2.1 µM
same,IC50,"Mtb Lpd [6]; read-out: IC50 Mtb Lpd, DTNB assay",2 µM
same,"Inhibition of human Lpd, physiological direction",human Lpd [7],No inhibition
same,EC50,[8],> 100 µM
"COc1ccc(C(=O)N2CCC3(CC2)C(=O)N(CC(=O)NCCc2ccc(Cl)cc2Cl)CN3c2ccccc2)c(OC)c1 [compound 5, N-(2,4-dichlorophenethyl)-2-(8-(2,4-dimethoxybenzoyl)-4-oxo-1-phenyl-1,3,8-triazaspiro[4.5]decan-3-yl)acetamide]",Mode of inhibition with respect to NADH,Mtb Lpd [1]; variable NADH 3.33 to 100 μM,noncompetitive
same,Mode of inhibition with respect to lipoamide,Mtb Lpd [1]; variable lipoamide,noncompetitive
same,IC50,porcine PDHC,100 µM
same,Inhibition of porcine PDHC,porcine PDHC; Fig. 2C,minimally inhibits
same,Inhibition of bovine thioredoxin reductase,[2]; Fig. 2C,minimally inhibits
same,IC50,[2]; IC50 bTR,20 µM
same,IC50,bovine Lpd,100 µM
same,Inhibition of bovine Lpd,bovine Lpd; Fig. 2C,minimally inhibits
same,IC50,human Lpd [3],> 100 µM
same,Inhibition of human Lpd (words),human Lpd [3],did not produce any measurable inhibition
same,Inhibition of human Lpd (words),human Lpd [3]; listed as Compound 5,no inhibition
same,Inhibition of Mtb Lpd in dihydrolipoamide-NAD+ assay,Mtb Lpd [4],inhibited
same,Mode of inhibition with respect to NAD+,Mtb Lpd [4]; variable NAD+ 25 μM to 2.5 mM,noncompetitive
same,"Inhibition of human Lpd, physiological direction",human Lpd [7],No inhibition
same,Mouse bone marrow macrophage survival,[8]; 100 μM (limit of solubility),80%
same,Toxicity against primary mouse bone marrow macrophages,[8]; Fig. 2C,no toxicity
same,EC50,"[8]; Mus musculus, Bone marrow macrophage, 24 h",> 100 µM
B1,binding result,crystal structure,binds
